Measurements published in patent US11718618B2, “Substituted pyrido[2,1-a]isoquinolines as VMAT2 inhibitors” (priority 2021, dated 2023).

What follows are compounds tested against human VMAT2 (Homo sapiens (Human), UniProt Q05940) (assay: VMAT2 radioligand binding, 3H-dihydrotetrabenazine competition on human platelet homogenate). Conditions: 10 nM 3H-dihydrotetrabenazine, human platelet homogenate, 25° C., 90 minutes; read-out: VMAT2 Ki.
Description: Examples of techniques for determining the capability of a compound to inhibit VMAT2 are provided below. The procedure was adapted from that described previously (see, e.g., Near, (1986), Mol. Pharmacol. 30: 252-57; Teng, et al., J. Neurochem. 71, 258-65, 1998). Homogenates from human platelets were prepared by homogenization and then washed by centrifugation as described previously (see, e.g., Hoare et al., (2003) Peptides 24:1881-97).
The human VMAT2 Ki values for the compounds listed in Table 15A and Table 15B were determined using the following procedures. Compound dilution series in DMSO were generated from either powder stocks by hand, or from DMSO stocks using serial dilution on a Vantage (Hamilton), or direct dilution using an Echo 655 (Beckman). In a total volume of 0.145 to 0.150 mL in low-binding 96-well plates (Corning #3605), twelve concentrations of test compound were competed against 10 nM ^3H-dihydrotetrabenezine (American Radiolabeled Chemicals) on human platelet homogenate (30 μg membrane protein per well) in VMAT2 binding buffer (Dulbecco's phosphate buffered saline, 1 mM EDTA, pH 7.4). Following incubation at 25° C. for 90 minutes, bound radioligand was collected by rapid filtration onto either GF/B or GF/C glass fiber filters, pretreated with 0.100 polyethylenimine, using either a Unifilter-96 Harvester (PerkinElmer) or Microlab Star (Hamilton). Following harvesting the filter plates were washed with 0.8 mL VMAT2 binding buffer, and bound radioligand was quantified by scintillation counting using a Topcount NXT or Microplate Counter Microbeta (PerkinElmer).

Sequence of human VMAT2 (Q05940 whole entry): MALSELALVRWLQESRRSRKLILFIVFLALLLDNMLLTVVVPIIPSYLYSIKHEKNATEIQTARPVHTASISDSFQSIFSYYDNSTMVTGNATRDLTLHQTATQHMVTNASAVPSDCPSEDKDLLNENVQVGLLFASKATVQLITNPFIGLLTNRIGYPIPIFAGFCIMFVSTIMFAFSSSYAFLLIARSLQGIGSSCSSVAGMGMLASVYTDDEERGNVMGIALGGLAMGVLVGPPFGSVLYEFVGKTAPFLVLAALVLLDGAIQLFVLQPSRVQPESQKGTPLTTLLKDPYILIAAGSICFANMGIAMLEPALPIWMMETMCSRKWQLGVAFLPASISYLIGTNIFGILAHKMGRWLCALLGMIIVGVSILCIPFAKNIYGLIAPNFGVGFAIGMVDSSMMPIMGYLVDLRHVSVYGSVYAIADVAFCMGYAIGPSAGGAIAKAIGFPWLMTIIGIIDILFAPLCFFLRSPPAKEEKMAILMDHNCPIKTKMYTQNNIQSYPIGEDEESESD

Point of comparison: COc1cc2c(cc1OC)[C@@H]1C[C@H](O)[C@@H](CC(C)(C)C)CN1CC2 [Compound 5-3, (2S,3S,11bS)-3-(2,2-dimethylpropyl)-9,10-dimethoxy-1H,2H,3H,4H,6H,7H,11bH-pyrido[2,1-a]isoquinolin-2-ol], Ki 0.7 µM. Against it:
- COc1cc2c(cc1OCC1(OS(C)(=O)=O)CC1)CCN1C[C@@H](CC(C)(C)C)[C@H](O)C[C@H]21 [Compound 4-94, 1-({[(2R,3R,11bR)-3-(2,2-dimethylpropyl)-2-hydroxy-10-methoxy-1H,2H,3H,4H,6H,7H,11bH-pyrido[2,1-a]isoquinolin-9-yl]oxy}methyl)cyclopropyl methanesulfonate] — 1.8-fold lower, 0.387 µM
- COc1cc2c(cc1OCCCO)CCN1C[C@@H](CC(C)(C)C)[C@H](O)C[C@H]21 [Compound 4-89, (2R,3R,11bR)-3-(2,2-dimethylpropyl)-9-(3-hydroxypropoxy)-10-methoxy-1H,2H,3H,4H,6H,7H,11bH-pyrido[2,1-a]isoquinolin-2-ol] — 5-fold lower, 0.14 µM
- COc1cc2c(cc1OCC1CCS(=O)(=O)CC1)CCN1C[C@@H](CC(C)(C)C)[C@H](O)C[C@H]21 [Compound 4-97, 4-({[(2R,3R,11bR)-3-(2,2-dimethylpropyl)-2-hydroxy-10-methoxy-1H,2H,3H,4H,6H,7H,11bH-pyrido[2,1-a]isoquinolin-9-yl]oxy}methyl)-1λ^6-thiane-1,1-dione] — higher, > 10 µM
- COc1cc2c(cc1OC[C@@H]1CCO1)CCN1C[C@@H](CC(C)(C)C)[C@H](O)C[C@H]21 [Compound 4-21, (2R,3R,11bR)-3-(2,2-dimethylpropyl)-10-methoxy-9-[(2S)-oxetan-2-ylmethoxy]-1H,2H,3H,4H,6H,7H,11bH-pyrido[2,1-a]isoquinolin-2-ol] — 25-fold lower, 0.028 µM
- COc1cc2c(cc1OCC1CN(C)C1)CCN1C[C@@H](CC(C)(C)C)[C@H](O)C[C@H]21 [Compound 4-37, (2R,3R,11bR)-3-(2,2-dimethylpropyl)-10-methoxy-9-[(1-methylazetidin-3-yl)methoxy]-1H,2H,3H,4H,6H,7H,11bH-pyrido[2,1-a]isoquinolin-2-ol] — higher, > 10 µM
- CCC(O)(CC)COc1cc2c(cc1OC)[C@H]1C[C@@H](O)[C@H](CC(C)(C)C)CN1CC2 [Compound 4-93, (2R,3R,11bR)-3-(2,2-dimethylpropyl)-9-(2-ethyl-2-hydroxybutoxy)-10-methoxy-1H,2H,3H,4H,6H,7H,11bH-pyrido[2,1-a]isoquinolin-2-ol] — 2.5-fold lower, 0.281 µM
- COc1cc2c(cc1OCC(F)(F)F)CCN1C[C@H](CC(C)(C)C)[C@H](O)C[C@@H]21 [Compound 4-4, (2R,3S,11bS)-3-(2,2-dimethylpropyl)-10-methoxy-9-(2,2,2-trifluoroethoxy)-1H,2H,3H,4H,6H,7H,11bH-pyrido[2,1-a]isoquinolin-2-ol] — 4.1-fold lower, 0.17 µM
- COc1cc2c(cc1OCc1ccc(C(F)(F)F)cc1)CCN1C[C@@H](CC(C)(C)C)[C@H](O)C[C@H]21 [Compound 4-81, (2R,3R,11bR)-3-(2,2-dimethylpropyl)-10-methoxy-9-{[4-(trifluoro-methyl)phenyl]methoxy}-1H,2H,3H,4H,6H,7H,11bH-pyrido[2,1-a]isoquinolin-2-ol] — 4-fold lower, 0.177 µM
- COc1cc2c(cc1OCC(C)(F)F)CCN1C[C@H](CC(C)(C)C)[C@@H](O)C[C@@H]21 [Compound 4-7, (2S,3S,11bS)-9-(2,2-difluoropropoxy)-3-(2,2-dimethylpropyl)-10-methoxy-1H,2H,3H,4H,6H,7H,11bH-pyrido[2,1-a]isoquinolin-2-ol] — within 1.5-fold, 0.539 µM
- COc1cc2c(cc1OCS(=O)(=O)N(C)C)CCN1C[C@@H](CC(C)(C)C)[C@H](O)C[C@H]21 [Compound 4-86, 1-{[(2R,3R,11bR)-3-(2,2-dimethylpropyl)-2-hydroxy-10-methoxy-1H,2H,3H,4H,6H,7H,11bH-pyrido[2,1-a]isoquinolin-9-yl]oxy}-N,N-dimethylmethanesulfonamide] — 2.4-fold lower, 0.287 µM
- COc1cc2c(cc1OC[C@H](O)CO)CCN1C[C@@H](CC(C)(C)C)[C@H](O)C[C@H]21 [Compound 4-83, (2R)-3-{[(2R,3R,11bR)-3-(2,2-dimethylpropyl)-2-hydroxy-10-methoxy-1H,2H,3H,4H,6H,7H,11bH-pyrido[2,1-a]isoquinolin-9-yl]oxy}propane-1,2-diol] — 3.4-fold lower, 0.207 µM
- COc1cc2c(cc1OCC1(C(F)(F)F)CCCC1)CCN1C[C@@H](CC(C)(C)C)[C@H](O)C[C@H]21 [Compound 4-80, (2R,3R,11bR)-3-(2,2-dimethylpropyl)-10-methoxy-9-{[1-(trifluoromethyl)cyclo-pentyl]methoxy}-1H,2H,3H,4H,6H,7H,11bH-pyrido[2,1-a]isoquinolin-2-ol] — 5.3-fold lower, 0.133 µM
- COc1cc2c(cc1OCCCS(C)(=O)=O)CCN1C[C@@H](CC(C)(C)C)[C@H](O)C[C@H]21 [Compound 4-85, (2R,3R,11bR)-3-(2,2-dimethylpropyl)-9-(3-methanesulfonylpropoxy)-10-methoxy-1H,2H,3H,4H,6H,7H,11bH-pyrido[2,1-a]isoquinolin-2-ol] — 2.5-fold lower, 0.276 µM
- COc1cc2c(cc1OC)[C@@H]1C[C@@H](O)[C@@H](CC(C)(C)C)CN1CC2 [Compound 5-4, (2R,3S,11bS)-3-(2,2-dimethylpropyl)-9,10-dimethoxy-1H,2H,3H,4H,6H,7H,11bH-pyrido[2,1-a]isoquinolin-2-ol] — higher, > 10 µM
- COc1cc2c(cc1OCC(C)(F)F)CCN1C[C@H](CC(C)(C)C)[C@H](O)C[C@@H]21 [Compound 4-3, (2R,3S,11bS)-9-(2,2-difluoropropoxy)-3-(2,2-dimethylpropyl)-10-methoxy-1H,2H,3H,4H,6H,7H,11bH-pyrido[2,1-a]isoquinolin-2-ol] — 4.6-fold lower, 0.152 µM
- COc1cc2c(cc1OCc1ncno1)CCN1C[C@@H](CC(C)(C)C)[C@H](O)C[C@H]21 [Compound 4-95, (2R,3R,11bR)-3-(2,2-dimethylpropyl)-10-methoxy-9-(1,2,4-oxadiazol-5-ylmethoxy)-1H,2H,3H,4H,6H,7H,11bH-pyrido[2,1-a]isoquinolin-2-ol] — higher, > 10 µM
- COc1cc2c(cc1OC(C)C(F)(F)F)CCN1C[C@@H](CC(C)(C)C)[C@H](O)C[C@H]21 (stereo partly drawn) [Compound 4-39, (2R,3R,11bR)-3-(2,2-dimethylpropyl)-10-methoxy-9-[(1,1,1-trifluoropropan-2-yl)oxy]-1H,2H,3H,4H,6H,7H,11bH-pyrido[2,1-a]isoquinolin-2-ol] — 58-fold lower, 0.012 µM
- COc1cc2c(cc1OCC(=O)N(C)C)CCN1C[C@@H](CC(C)(C)C)[C@H](O)C[C@H]21 [Compound 4-33, 2-{[(2R,3R,11bR)-3-(2,2-dimethylpropyl)-2-hydroxy-10-methoxy-1H,2H,3H,4H,6H,7H,11bH-pyrido[2,1-a]isoquinolin-9-yl]oxy}-N,N-dimethylacetamide] — higher, > 10 µM
- COc1cc2c(cc1OC1CCN(CC(F)(F)F)C1=O)CCN1C[C@@H](CC(C)(C)C)[C@H](O)C[C@H]21 (stereo partly drawn) [Compound 4-87, 3-{[(2R,3R,11bR)-3-(2,2-dimethylpropyl)-2-hydroxy-10-methoxy-1H,2H,3H,4H,6H,7H,11bH-pyrido[2,1-a]isoquinolin-9-yl]oxy}-1-(2,2,2-trifluoroethyl)pyrrolidin-2-one] — within 1.5-fold, 0.65 µM
- COc1cc2c(cc1OCC(F)(F)F)CCN1C[C@H](CC(C)(C)C)[C@@H](O)C[C@@H]21 [Compound 4-8, (2S,3S,11bS)-3-(2,2-dimethylpropyl)-10-methoxy-9-(2,2,2-trifluoroethoxy)-1H,2H,3H,4H,6H,7H,11bH-pyrido[2,1-a]isoquinolin-2-ol] — within 1.5-fold, 0.597 µM
- COC[C@H](O)COc1cc2c(cc1OC)[C@H]1C[C@@H](O)[C@H](CC(C)(C)C)CN1CC2 [Compound 4-48, (2R,3R,11bR)-3-(2,2-dimethylpropyl)-9-[(2S)-2-hydroxy-3-methoxypropoxy]-10-methoxy-1H,2H,3H,4H,6H,7H,11bH-pyrido[2,1-a]isoquinolin-2-ol] — 2.2-fold lower, 0.313 µM
- COc1cc2c(cc1OCC(=O)N(C)CC(F)(F)F)CCN1C[C@@H](CC(C)(C)C)[C@H](O)C[C@H]21 [Compound 4-84, 2-{[(2R,3R,11bR)-3-(2,2-dimethylpropyl)-2-hydroxy-10-methoxy-1H,2H,3H,4H,6H,7H,11bH-pyrido[2,1-a]isoquinolin-9-yl]oxy}-N-methyl-N-(2,2,2-trifluoroethyl)acetamide] — 2.6-fold lower, 0.272 µM
- COc1cc2c(cc1OCC(F)F)CCN1C[C@H](CC(C)(C)C)[C@@H](O)C[C@@H]21 [Compound 4-6, (2S,3S,11bS)-9-(2,2-difluoroethoxy)-3-(2,2-dimethylpropyl)-10-methoxy-1H,2H,3H,4H,6H,7H,11bH-pyrido[2,1-a]isoquinolin-2-ol] — within 1.5-fold, 0.86 µM
- COc1cc2c(cc1OCCOC1COC1)CCN1C[C@@H](CC(C)(C)C)[C@H](O)C[C@H]21 [Compound 4-20, (2R,3R,11bR)-3-(2,2-dimethylpropyl)-10-methoxy-9-[2-(oxetan-3-yloxy)ethoxy]-1H,2H,3H,4H,6H,7H,11bH-pyrido[2,1-a]isoquinolin-2-ol] — 2.1-fold lower, 0.336 µM
- COc1cc2c(cc1OCCC(F)(F)F)CCN1C[C@H](CC(C)(C)C)[C@H](O)C[C@@H]21 [Compound 4-5, (2R,3S,11bS)-3-(2,2-dimethylpropyl)-10-methoxy-9-(3,3,3-trifluoropropoxy)-1H,2H,3H,4H,6H,7H,11bH-pyrido[2,1-a]isoquinolin-2-ol] — 5.2-fold lower, 0.135 µM
